This passage reports IC50 results from patent US20260062412A1, “NITROGEN-CONTAINING HETEROCYCLIC COMPOUND HAVING MYT1 INHIBITORY ACTIVITY” (CHUGAI SEIYAKU KABUSHIKI KAISHA, priority 2023, published 2026).

The target in the test is MYT1 protein (Homo sapiens (Human), UniProt Q99640). Briefly: Test for binding to ATP binding site of MYT1 (Kinase Tracer 178 / Eu-Anti-GST antibody TR-FRET). The note with it: ATP binding site of MYT1, 30 minutes at room temperature. As to the method: The binding capacity of each compound to the ATP binding site of MYT1 Kinase protein was evaluated. 5× Kinase Buffer A (manufactured by Thermo Fisher Scientific Inc., PV3189) was diluted to 5 times with Milli-Q water, thereby preparing 1× Kinase Buffer. Using 1× Kinase Buffer, MYT1 protein (manufactured by Carna Biosciences, Inc.) was diluted to a concentration of 0.005 μM and Eu-Anti-GST Antibody was diluted to a concentration of 1 μM. […] To a 96 well-plate, 2.5 μL of a compound diluted with DMSO was added. […] The mixture was well mixed and then allowed to stand at room temperature for 30 minutes. Thereafter, fluorescence wavelengths of 665 nm and 615 nm generated by irradiation with excitation light of 340 nm were detected using Envision (manufactured by PerkinElmer). The proportion of Tracer bound to MYT1 protein was calculated for every condition by dividing the intensity at the fluorescence wavelength of 665 nm by the intensity at the fluorescence wavelength of 615 nm.
Background: In TR-FRET formats the signal depends on donor and acceptor labels being close together.

The IC50 is the concentration that gives 50% inhibition. A low value points to greater potency.

Structures can show the parent of a compound that is named as a salt.

Chain of MYT1 protein (Q99640 whole entry): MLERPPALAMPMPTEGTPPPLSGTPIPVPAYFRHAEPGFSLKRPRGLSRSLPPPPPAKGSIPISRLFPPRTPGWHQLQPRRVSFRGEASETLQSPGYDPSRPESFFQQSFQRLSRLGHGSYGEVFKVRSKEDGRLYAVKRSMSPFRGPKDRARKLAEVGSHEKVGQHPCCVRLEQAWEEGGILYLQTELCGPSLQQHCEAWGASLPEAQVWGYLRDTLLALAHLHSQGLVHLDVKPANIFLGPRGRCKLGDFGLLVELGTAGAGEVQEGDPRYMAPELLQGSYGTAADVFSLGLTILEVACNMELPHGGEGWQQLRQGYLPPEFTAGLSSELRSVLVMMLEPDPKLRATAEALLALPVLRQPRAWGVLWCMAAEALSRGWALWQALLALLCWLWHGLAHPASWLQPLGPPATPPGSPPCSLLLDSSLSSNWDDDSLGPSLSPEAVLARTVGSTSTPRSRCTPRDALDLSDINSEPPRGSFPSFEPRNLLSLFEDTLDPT

`Nc1c(-c2ccc(F)c3[nH]ncc23)c2cc(Br)c3c(Cl)cccc3c2[nH]c1=O` [Compound B16, 3-Amino-6-bromo-7-chloro-4-(7-fluoro-1H-indazol-4-yl)-1H-benzo[h]quinolin-2-one] displayed an IC50 of 46 nM.
The molecule `Nc1c(-c2cc(F)c(F)c3[nH]ncc23)c2cc(C3CC3)c3ncccc3c2[nH]c1=O` [Compound C191, 3-Amino-6-cyclopropyl-4-(6,7-difluoro-1H-indazol-4-yl)-1H-1,7-phenanthrolin-2-one] came in with an IC50 of 6 nM.
Turning to `Nc1c(-c2ccc(F)c3[nH]ncc23)c2cc(OC[C@@H]3CCCO3)c3ncccc3c2[nH]c1=O` [Compound C37, 3-Amino-4-(7-fluoro-1H-indazol-4-yl)-6-[[(2S)-oxolan-2-yl]methoxy]-1H-1,7-phenanthrolin-2-one], the IC50 turned out to be 3.9 nM.
For `C=Cc1cc(Cl)cc2c(-c3ccc(Cl)c4[nH]ncc34)c(N)c(=O)[nH]c12` [Compound A23, 3-Amino-6-chloro-4-(7-chloro-1H-indazol-4-yl)-8-ethenyl-1H-quinolin-2-one] the value was 34 nM; for `Nc1c(-c2ccc(F)c3[nH]ncc23)c2cc(OC3CCC(F)(F)CC3)c3ncccc3c2[nH]c1=O` [Compound C48, 3-Amino-6-(4,4-difluorocyclohexyl)oxy-4-(7-fluoro-1H-indazol-4-yl)-1H-1,7-phenanthrolin-2-one], 10 nM; for `Nc1c(-c2ccc(F)c3[nH]ncc23)c2cc(OCC3CC(F)(F)C3)c3ncccc3c2[nH]c1=O` [Compound C39, 3-Amino-6-[(3,3-difluorocyclobutyl)methoxy]-4-(7-fluoro-1H-indazol-4-yl)-1H-1,7-phenanthrolin-2-one], 6.5 nM.
In the case of `Nc1c(-c2ccc(F)c3[nH]ncc23)c2cc(Br)c3cnsc3c2[nH]c1=O` [Compound H1, 7-Amino-4-bromo-6-(7-fluoro-1H-indazol-4-yl)-9H-[1,2]thiazolo[4,5-h]quinolin-8-one] it was 6.2 nM; in that of `Nc1c(-c2ccc(F)c3[nH]ncc23)c2cc(C3CCCC3)c3ccccc3c2[nH]c1=O` [Compound B25, 3-Amino-6-cyclopentyl-4-(7-fluoro-1H-indazol-4-yl)-1H-benzo[h]quinolin-2-one], 24 nM; in that of `Nc1c(-c2ccc(F)c3[nH]ncc23)c2cc(Br)c3scnc3c2[nH]c1=O` [Compound N1, 7-Amino-4-bromo-6-(7-fluoro-1H-indazol-4-yl)-9H-[1,3]thiazolo[5,4-h]quinolin-8-one], 5.3 nM.
Regarding `Nc1c(-c2ccc(F)c3[nH]ncc23)c2cc(OCC3CC3)c3ncccc3c2[nH]c1=O` [Compound C11, 3-Amino-6-(cyclopropylmethoxy)-4-(7-fluoro-1H-indazol-4-yl)-1H-1,7-phenanthrolin-2-one], the 50% inhibitory concentration (IC50) stood at 1.4 nM.
`N#CC1(c2cc3c(-c4ccc(F)c5[nH]ncc45)c(N)c(=O)[nH]c3c3cccnc23)CC1` [Compound C95, 1-[3-Amino-4-(7-fluoro-1H-indazol-4-yl)-2-oxo-1H-1,7-phenanthrolin-6-yl]cyclopropane-1-carbonitrile] yielded a concentration for half-maximal inhibition (IC50) of 8.7 nM.
In the case of `CC1(COc2cc3c(-c4ccc(F)c5[nH]ncc45)c(N)c(=O)[nH]c3c3cccnc23)CC(F)(F)C1` [Compound C52, 3-Amino-6-[(3,3-difluoro-1-methylcyclobutyl)methoxy]-4-(7-fluoro-1H-indazol-4-yl)-1H-1,7-one] it was 2.6 nM; in that of `CN1CC(c2cc3c(-c4ccc(F)c5[nH]ncc45)c(N)c(=O)[nH]c3c3ncccc23)C1` [Compound D30, 3-Amino-4-(7-fluoro-1H-indazol-4-yl)-6-(1-methylazetidin-3-yl)-1H-1,10-phenanthrolin-2-one], 2.9 nM.
In the case of `CCOc1cc2c(-c3cc(F)c(Cl)c4[nH]ncc34)c(N)c(=O)[nH]c2c2cccnc12` [Compound C193, 3-Amino-4-(7-chloro-6-fluoro-1H-indazol-4-yl)-6-ethoxy-1H-1,7-phenanthrolin-2-one] it was 1.7 nM; in that of `CC(C)N1CCC(c2ccc3[nH]c(=O)c(N)c(-c4ccc(Cl)c5[nH]ncc45)c3c2)CC1` [Compound A34, 3-Amino-4-(7-chloro-1H-indazol-4-yl)-6-(1-propan-2-ylpiperidin-4-yl)-1H-quinolin-2-one], 26 nM; in that of `Nc1c(-c2cccc(O)c2)c2ccc3cnccc3c2[nH]c1=O` [Compound P5, 3-Amino-4-(3-hydroxyphenyl)-1H-1,8-phenanthrolin-2-one; hydrobromide], 3.9 nM.
`Nc1c(-c2ccc(F)c3[nH]ncc23)c2cc(C3CCN(C4CCC4)CC3)c3cccnc3c2[nH]c1=O` [Compound D24, 3-Amino-6-(1-cyclobutylpiperidin-4-yl)-4-(7-fluoro-1H-indazol-4-yl)-1H-1,10-phenanthrolin-2-one] yielded an IC50 of 6.9 nM.
For `CCCc1cc2c(-c3ccc(F)c4[nH]ncc34)c(N)c(=O)[nH]c2c2cccnc12` [Compound C106, 3-Amino-4-(7-fluoro-1H-indazol-4-yl)-6-propyl-1H-1,7-phenanthrolin-2-one] the value was 2.7 nM; for `Nc1c(-c2ccc(F)c3[nH]ncc23)c2cc(C3CCC(F)(F)C3)c3ncccc3c2[nH]c1=O` (stereo not shown) [Compound C162, 3-Amino-6-(3,3-difluorocyclopentyl)-4-(7-fluoro-1H-indazol-4-yl)-1H-1,7-phenanthrolin-2-one], 12 nM; for `Cc1c(C2CC2)c2ncccc2c2[nH]c(=O)c(N)c(-c3cc(F)c(F)c4[nH]ncc34)c12` [Compound C217, 3-Amino-6-cyclopropyl-4-(6,7-difluoro-1H-indazol-4-yl)-5-methyl-1H-1,7-phenanthrolin-2-one], 1.8 nM.
In the case of `Nc1c(-c2cc(F)c(F)c3[nH]ncc23)c2cc(-c3cccnc3)c3ncccc3c2[nH]c1=O` [Compound C215, 3-Amino-4-(6,7-difluoro-1H-indazol-4-yl)-6-pyridin-3-yl-1H-1,7-phenanthrolin-2-one] it was 2.4 nM; in that of `Nc1c(-c2ccc(F)c3[nH]ncc23)c2cc(C3CCOC3)c3ncccc3c2[nH]c1=O` (stereo not shown) [Compound C159, 3-Amino-4-(7-fluoro-1H-indazol-4-yl)-6-(oxolan-3-yl)-1H-1,7-phenanthrolin-2-one], 2.3 nM.
`Cc1cc2c(-c3ccc(C)c4[nH]ncc34)c(N)c(=O)[nH]c2c2cccnc12` [Compound C153, 3-Amino-6-methyl-4-(7-methyl-1H-indazol-4-yl)-1H-1,7-phenanthrolin-2-one] showed a 50% inhibitory concentration (IC50) of 4.4 nM.
`Nc1c(-c2cc(F)c(F)c3[nH]ncc23)c2cc(OCC3CC3)c3ncccc3c2[nH]c1=O` [Compound C70, 3-Amino-6-(cyclopropylmethoxy)-4-(6,7-difluoro-1H-indazol-4-yl)-1H-1,7-phenanthrolin-2-one] had a concentration for half-maximal inhibition (IC50) of 1.1 nM.
In the case of `Nc1c(-c2ccc(F)c3[nH]ncc23)c2cc(N3CCN(CC(F)(F)F)CC3)c3cccnc3c2[nH]c1=O` [Compound D15, 3-Amino-4-(7-fluoro-1H-indazol-4-yl)-6-[4-(2,2,2-trifluoroethyl)piperazin-1-yl]-1H-1,10-phenanthrolin-2-one] it was 69 nM; in that of `Nc1c(-c2cccc(O)c2)c2cc(Br)c3ccccc3c2[nH]c1=O` [Compound B4, 3-Amino-6-bromo-4-(3-hydroxyphenyl)-1H-benzo[h]quinolin-2-one], 27 nM.
Take `Cc1cc2c(-c3c(F)cc(F)c4[nH]ncc34)c(N)c(=O)[nH]c2c2cccnc12` [Compound C222, 3-Amino-4-(5,7-difluoro-1H-indazol-4-yl)-6-methyl-1H-1,7-phenanthrolin-2-one]: the IC50 stood at 1.4 nM.
In the case of `Nc1c(-c2cc(F)c(F)c3[nH]ncc23)c2c(F)cc3ncccc3c2[nH]c1=O` [Compound C221, 3-Amino-4-(6,7-difluoro-1H-indazol-4-yl)-5-fluoro-1H-1,7-phenanthrolin-2-one] it was 0.72 nM; in that of `Nc1c(-c2ccc(F)c3[nH]ncc23)c2cc(N3C4COCC3C4)c3ncccc3c2[nH]c1=O` [Compound C129, 3-Amino-4-(7-fluoro-1H-indazol-4-yl)-6-(3-oxa-6-azabicyclo[3.1.1]heptan-6-yl)-1H-1,7-one], 3.3 nM.
In the case of `CC(C)Oc1cc2c(-c3ccc(F)c4[nH]ncc34)c(N)c(=O)[nH]c2c2ccc(=O)[nH]c12` [Compound T5, 3-Amino-4-(7-fluoro-1H-indazol-4-yl)-6-propan-2-yloxy-1,7-dihydro-1,7-phenanthroline-2,8-dione] it was 3.5 nM; in that of `Nc1c(-c2ccc(F)c3[nH]ncc23)c2cc(N3CCC(N4CCOCC4)CC3)c3cccnc3c2[nH]c1=O` [Compound D7, 3-Amino-4-(7-fluoro-1H-indazol-4-yl)-6-(4-morpholin-4-ylpiperidin-1-yl)-1H-1,10-phenanthrolin-2-one], 15 nM; in that of `CN1CCN(c2cc3c(-c4cc(F)c(F)c5[nH]ncc45)c(N)c(=O)[nH]c3c3cccnc23)CC1` [Compound C209, 3-Amino-4-(6,7-difluoro-1H-indazol-4-yl)-6-(4-methylpiperazin-1-yl)-1H-1,7-phenanthrolin-2-one], 1.5 nM.
With `Cc1cc2c(-c3ccc(F)c4[nH]ncc34)c(N)c(=O)[nH]c2c2sncc12` [Compound H2, 7-Amino-6-(7-fluoro-1H-indazol-4-yl)-4-methyl-9H-[1.2]thiazolo[4,5-h]quinolin-8-one], the IC50 came out at 1.8 nM.
For `CCC(C)c1cc2c(-c3ccc(F)c4[nH]ncc34)c(N)c(=O)[nH]c2c2cccnc12` (stereo not shown) [Compound C109, 3-Amino-6-butan-2-yl-4-(7-fluoro-1H-indazol-4-yl)-1H-1,7-phenanthrolin-2-one] the value was 4.6 nM.
